In ChEMBL document CHEMBL3352422, “Imidazo[2,1-b]thiazole derivatives as new inhibitors of 15-lipoxygenase” (Eur J Med Chem, 2014):
Active and inactive are the calls of the source. The rule behind the calls is not given here.

test system: PC-12; assay: Cytoprotective activity against rat PC12 cells assessed as protection against H2O2-induced cell death at 1 to 10 uM pre-treated 3 hrs before H2O2 addition and measured 24 hrs post H2O2 challenge by MTT assay; format: functional, cell-based; conditions: not given

Row | Structure (SMILES) | Activity
1 | COc1ccc(-c2csc3nc(-c4ccccc4)c(NC(C)(C)CC(C)(C)C)n23)cc1 | Active

test system: not listed separately; assay: Inhibition of soybean 15-LOX incubated for 4 mins before linoleic acid substrate addition by spectrophotometry; parameters: species or system Glycine max; conditions: not given

Row | IC50 | Structure (SMILES)
2 | Not Active | Brc1ccccc1-c1nc2scc(-c3ccccc3)n2c1NC1CCCCC1

same assay, conditions: read-out: IC50

Row | Structure (SMILES) | IC50 [µM]
3 | O=[N+]([O-])c1ccccc1-c1nc2scc(-c3ccc(Br)cc3)n2c1NC1CCCCC1 | 170
4 | COc1ccc(-c2nc3scc(-c4ccccc4)n3c2NC(C)(C)C)cc1 | 58
5 | O=[N+]([O-])c1ccc(-c2nc3scc(-c4ccccc4)n3c2NC2CCCCC2)cc1 | 737
6 | Clc1ccc(-c2nc3scc(-c4ccc(Br)cc4)n3c2NC2CCCCC2)cc1 | 52
7 | O=c1c(O)c(-c2ccc(O)c(O)c2)oc2cc(O)cc(O)c12 [QUERCETIN] | 23
8 | CC(C)(C)CC(C)(C)Nc1c(-c2ccccc2[N+](=O)[O-])nc2scc(-c3ccccc3)n12 | 70
9 | COc1ccc(-c2nc3scc(-c4ccccc4)n3c2NC2CCCCC2)cc1 | 765

Continued, values first:

Row | IC50 [µM] | Structure (SMILES)
10 | 33 | CC(C)(C)Nc1c(-c2ccc(Cl)cc2)nc2scc(-c3ccccc3)n12
11 | 35.4 | Fc1ccccc1-c1nc2scc(-c3ccccc3)n2c1NC1CCCCC1
12 | 35 | Cc1ccc(-c2nc3scc(-c4ccccc4)n3c2NC(C)(C)C)cc1
13 | 11.5 | COc1ccc(-c2csc3nc(-c4ccccc4)c(NC(C)(C)CC(C)(C)C)n23)cc1
14 | 32 | CC(C)(C)CC(C)(C)Nc1c(-c2ccc([N+](=O)[O-])cc2)nc2scc(-c3ccc(Br)cc3)n12
15 | 45 | CC(C)(C)Nc1c(-c2ccc([N+](=O)[O-])cc2)nc2scc(-c3ccccc3)n12
16 | 20.7 | CC(C)(C)CC(C)(C)Nc1c(-c2ccc(Cl)cc2)nc2scc(-c3ccc(Br)cc3)n12

test system: not listed separately; assay: Toxicity in rat PC12 cells at 1 to 10 uM after 24 hrs by MTT assay; format: cell-based; conditions: pc-12, 24 h

Row | Structure (SMILES) | Activity
17 | COc1ccc(-c2csc3nc(-c4ccccc4)c(NC(C)(C)CC(C)(C)C)n23)cc1 | Non-toxic
